Measured values: patent publication US20240189388A1, “MEDICATION FOR TREATING LUNG INJURY” (SHANGHAI SEME CELL TECHNOLOGY CO., LTD., priority 2021, published 2024)

Columns and labels:
rats with a lung injury [1] = experiment: BALF inflammatory factors and total protein (Example 2); type: in vivo, Sprague-Dawley rats
Protocol: (§1) D0: The animals in the normal control group were intraperitoneally injected with sodium chloride injection (1 ml/kg), while the animals in other groups were intraperitoneally injected with lipopolysaccharides (1 mg/kg, 1 ml/kg).
(§2) D1: After 16 h (+30 min) of intraperitoneal injection, the animals were anesthetized by inhaling isoflurane. The animals in the normal control group were nebulized with sodium chloride injection (1 mL/kg) in the trachea, while the animals in other groups were nebulized with lipopolysaccharides (5 mg/kg, 1 ml/kg) in the trachea.
(§3) Administration frequency and duration: On D1, the animals were administered for the first time within 3 h after the intratracheal nebulization with the modeling reagent (LPS); and on D2, the animals were administered for the second time. The interval between the two administrations was about 24 h (+20 min).
Sample collection: After the animals were euthanatized, the skin and tissues of the neck and chest were incised to expose the trachea, bronchi, and lungs. The bronchi in the right lung were separated and ligated. A suture was threaded under the trachea, a ½ incision was made between cartilage rings of the trachea at an appropriate position under the thyroid cartilage, a trachea cannula was slowly inserted along the incision into the airway to a left bronchus, and the inserted cannula was fastened with the trachea by using the threaded suture at an appropriate position in a centripetal direction of the incision. 3 ml of PBS buffer was slowly injected with a syringe for bronchoalveolar lavage. The lavage was repeated 3 times, with each remaining for about 10 seconds. The lavage solution was collected into a centrifuge tube of appropriate capacity.
BALF treatment: The collected lavage solution was centrifuged at 4° C. and approximately 2000 rpm for 20 min. The supernatant was stored below −60° C. for later use. The precipitate was re-suspended with I mL of PBS buffer for count and classification of white blood cells. The supernatant after BALF centrifugation was managed as a sample by using a Watson LIMS7.5 system.
Test of total protein content in the BALF: At the end of the experiment, the total protein content in the BALF was tested by a total protein test kit (BCA method).
Test of inflammatory factors in the BALF: At the end of the experiment, the inflammatory factors (IL-1β, IL-6, IL-10, and TNF-α) in the BALF were tested by an inflammatory factor test kit.

rats with a lung injury [2] = experiment: Inflammatory factors in serum (Example 2); type: in vivo, Sprague-Dawley rats
Protocol: as §1, §2, §3
Collection of blood sample: About 1 mL of abdominal aortic blood of each animal was collected into a centrifuge tube containing a separation gel and a coagulant.
Treatment of blood sample: After collection, the blood sample was stored and transported at room temperature, and centrifuged within 2 hours under the conditions: 3000 g, room temperature, and 10 minutes. The serum after centrifugation was transferred to a new labeled centrifuge tube and divided into 2 tubes, which were temporarily stored below −60° C. At the end of the experiment, inflammatory factors (IL-1β, IL-6, IL-10, and TNF-α) in the serum were tested by a reagent kit. The blood sample was managed by the Watson LIMS7.5 system.

rats with a lung injury [3] = experiment: Survival test, LPS lung injury rats (Example 2); type: in vivo, Sprague-Dawley rats; conditions: test sample group, 0.75 mg/kg intravenous, 6 rats
Protocol: Animal grouping: 18 qualified male animals were randomly divided into a normal control group, a model control group, and a test sample group according to their body weight measured before grouping, with 6 animals per group.
as §1, §2
D1: About 3 h to 5 h after the intratracheal nebulization of the modeling reagent (LPS), the animals were administrated with the test sample or solvent according to the following table 8: […]
After planned euthanasia, a rate of a quantity of live animals in each group to a total quantity of animals in each group in an experimental period was calculated.
Survival rate (%)=the quantity of live animals in a group/the total quantity of animals in the group×100%.

[4] = test system: LPS-induced acute respiratory distress syndrome; experiment: BALF neutrophil count and percentage, LPS-induced ARDS rat model (Example 1); type: in vivo, SD rats
Protocol: Normal adult male SD rats were randomly grouped, 5 rats in each group. The animals were intraperitoneally injected and nebulized in the trachea with lipopolysaccharides (LPS) as a modeling reagent, as shown in Table 1:
The animals in groups G1 and G2 were intraperitoneally injected with lipopolysaccharides (0.8 mg/kg. body weight) according to their body weight, anesthetized by inhaling isoflurane after 16 h of the intraperitoneal injection, and nebulized with lipopolysaccharides (5 mg/kg. body weight) in the trachea.
Intraperitoneal injection with lipopolysaccharides (LPS): According to the body weight of the animals, each animal was administered with lipopolysaccharides by intraperitoneal injection with a disposable micro syringe.
Intratracheal nebulization with lipopolysaccharides (LPS): Each animal was anesthetized by inhaling isoflurane and then fixed on a rat fixator placed at a 45° angle, the root of the animal's tongue was pressed by a small animal anesthesia laryngoscope to expose the glottis, a pulmonary micro liquid nebulizer needle (blunt) that extracted a quantitative solution of LPS was gently inserted into the trachea, then the piston was quickly pushed to atomize the LPS solution into the lung, the needle was quickly pulled out, and the animal was taken down from the fixator and rotated left and right with its head facing upwards to distribute LPS as evenly as possible in each lung lobe.
The animals were administered for the first time within 1 h after the intratracheal nebulization with the modeling reagent (LPS), and the second time after 24 h.
The day after the end of the second administration (48 h after the intratracheal nebulization with the modeling reagent).
Collection of samples: On the day after the second administration, all groups of animals were euthanized with CO2, then their abdominal cavities were opened, and their abdominal arteries were cut for bleeding. […] Precipitated cells were re-suspended with 1 ML PBS, and total cells in the BALF were counted by a blood cell counter and trypan blue staining. […]

[5] = D3, 0.75 mg/kg i.v. twice, 6 rats, x ± SD
[6] = test sample group vs model control group
[7] = G2 mean, 5 rats, 1 mg/kg caudal vein injection twice, 48 h after LPS nebulization

Annexin A5
IL-1β in BALF (rats with a lung injury [1]; [5]): 107.45 ± 51.12 pg/mL | IL-6 in BALF (rats with a lung injury [1]; [5]): 14.42 ± 23.92 pg/mL | IL-10 in BALF (rats with a lung injury [1]; [5]): 0.92 ± 2.23 pg/mL | TNF-α in BALF (rats with a lung injury [1]; [5]): 4.54 ± 4.63 pg/mL | Total proteins in BALF (rats with a lung injury [1]; [5]): 461.31 ± 187.36 µg/mL | Change of BALF white blood cell counts, total protein and inflammatory factors (rats with a lung injury [1]; [6]): significantly decreased | IL-1β in serum (rats with a lung injury [2]; [5]): 15.41 ± 25.29 pg/mL | IL-6 in serum (rats with a lung injury [2]; [5]): 0.00 ± 0.00 pg/mL | IL-10 in serum (rats with a lung injury [2]; [5]): 18.35 ± 9.84 pg/mL | TNF-α in serum (rats with a lung injury [2]; [5]): 0.00 ± 0.00 pg/mL | Change of inflammatory factors in the serum (rats with a lung injury [2]; [6]): significantly decreased to similar levels as the normal control group | Survival rate (rats with a lung injury [3]): 100% | Effect on count of neutrophils (Neu cells) in the BALF ([4]; G2 compared to model control group G1): significantly inhibited | Neu cell counts in the BALF [4, 7]: 7.03 *10^6 | Percentages of Neu cells in the BALF [4, 7]: 36.80%
